Substitutions are numbered along the chain they refer to.
Experiments:
Test in all cases: Initial-rate assay without 3-PGA, ATP and G-1-P both varied (0.01-10 mM and 0.1-25 mM), global fit to a sequential mechanism.
Type in all cases: biochemical
Conditions in all cases: read-out: ATP Km (absence of 3-PGA)
[1] = biological target: T1, E123G, R331K, K402R (BT2-BF) (Zea mays, UniProt P55241+Q947C0, E123G/R331K/K402R)
T1 construct: BT2-BF with wild type SH2 (SH2-WT/BT2-BF), E. coli, purified
T1 sequence (Q947C0 1-475 E123G/R331K/K402R): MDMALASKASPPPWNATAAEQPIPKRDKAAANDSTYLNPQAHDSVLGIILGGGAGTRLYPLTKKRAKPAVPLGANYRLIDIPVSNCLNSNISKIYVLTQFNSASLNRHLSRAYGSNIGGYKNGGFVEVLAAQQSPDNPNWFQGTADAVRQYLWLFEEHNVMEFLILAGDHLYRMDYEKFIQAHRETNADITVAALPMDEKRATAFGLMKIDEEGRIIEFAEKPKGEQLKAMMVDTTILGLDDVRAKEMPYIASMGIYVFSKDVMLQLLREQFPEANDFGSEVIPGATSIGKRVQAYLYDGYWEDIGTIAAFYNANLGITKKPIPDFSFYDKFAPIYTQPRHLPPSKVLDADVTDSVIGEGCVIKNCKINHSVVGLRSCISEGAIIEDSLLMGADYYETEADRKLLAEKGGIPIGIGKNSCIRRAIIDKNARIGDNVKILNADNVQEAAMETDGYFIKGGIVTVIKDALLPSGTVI
T1 sequence (P55241 46-516): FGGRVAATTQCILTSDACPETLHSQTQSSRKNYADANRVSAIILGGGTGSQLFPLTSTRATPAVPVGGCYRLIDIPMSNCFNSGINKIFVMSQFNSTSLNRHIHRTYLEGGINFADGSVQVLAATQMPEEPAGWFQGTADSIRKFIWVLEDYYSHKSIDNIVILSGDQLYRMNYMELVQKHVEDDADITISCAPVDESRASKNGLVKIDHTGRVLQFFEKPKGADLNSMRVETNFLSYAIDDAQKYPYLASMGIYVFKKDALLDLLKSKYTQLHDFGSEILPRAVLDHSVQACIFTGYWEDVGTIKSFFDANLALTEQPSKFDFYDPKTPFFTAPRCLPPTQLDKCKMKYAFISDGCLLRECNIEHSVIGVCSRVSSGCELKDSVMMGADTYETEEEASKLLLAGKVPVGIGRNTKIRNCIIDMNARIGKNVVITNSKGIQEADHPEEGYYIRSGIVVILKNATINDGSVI
Text: (§1) Activity in the absence of the activator 3PGA was examined. While 3PGA is a noted activator for plant AGPase, the mechanism of activation differs for the various AGPases. […] Thus, the term “activation fold” in the literature is merely an activity reported at single fixed substrate concentrations.
(§2) The small subunit mutant, MP, contains the first 198 amino acids of the small subunit of the maize endosperm enzyme and the last 277 amino acids from the potato tuber enzyme resulting in thirty-three amino acid sites that differ from the maize endosperm enzyme ([Cross et al., 2004]).

SH2-E/BT2-BF = biological target: T2, SH2-E/BT2-BF (Zea mays, UniProt P55241+Q947C0, E123G/N131R/T142F/A160T/Q261S/R331K/A396S/K402R/V416I/C424V/S444A)
T2 construct: SH2-E co-expressed with BT2-BF, E. coli, purified
T2 sequence (Q947C0 1-475 E123G/R331K/K402R): T1 sequence (Q947C0 1-475 E123G/R331K/K402R)
T2 sequence (P55241 46-516 N131R/T142F/A160T/Q261S/A396S/V416I/C424V/S444A): T1 sequence (P55241 46-516) with N86R, T97F, A115T, Q216S, A351S, V371I, C379V, S399A
Text: as §1, §2

SH2-ISM = biological target: T3, SH2-ISM (Zea mays, UniProt P55241+Q947C0, Q96G/D161G/A443R)
T3 construct: SH2-ISM with wild type BT2 (SH2-ISM/BT2-WT), E. coli, purified
T3 sequence (Q947C0 1-475): T1 sequence (Q947C0 1-475 E123G/R331K/K402R) with G123E, K331R, R402K
T3 sequence (P55241 46-516 Q96G/D161G/A443R): T1 sequence (P55241 46-516) with Q51G, D116G, A398R
Text: as §1, §2

SH2-ISM/BT2-BF = biological target: T4, SH2-ISM/BT2-BF (Zea mays, UniProt P55241+Q947C0, Q96G/E123G/D161G/R331K/K402R/A443R)
T4 construct: SH2-ISM co-expressed with BT2-BF, E. coli, purified
T4 sequence (Q947C0 1-475 E123G/R331K/K402R): T1 sequence (Q947C0 1-475 E123G/R331K/K402R)
T4 sequence (P55241 46-516 Q96G/D161G/A443R): T1 sequence (P55241 46-516) with Q51G, D116G, A398R
Text: as §1, §2

Nc1ncnc2c1ncn2[C@@H]1O[C@H](COP(=O)(O)OP(=O)(O)OP(=O)(O)O)[C@@H](O)[C@H]1O [ATP, adenosine 5'-triphosphate]
Km [1]: 300 ± 250 µM | Km (SH2-E/BT2-BF): 2.41 ± 0.35 mM | Km (SH2-ISM): 100 ± 48 µM | Km (SH2-ISM/BT2-BF): 510 ± 100 µM
